We go through three molecules from patent US9970057B2, “Human invasion signature for prognosis of metastatic risk” (ALBERT EINSTEIN COLLEGE OF MEDICINE, INC., priority 2011, dated 2018).

“Also recorded” adds a separate entry of the source.

Assay [1] has as its system MDA-MB-231 tumors and patient-derived HT17 and HT39 breast tumors. Description: in vivo invasion assay in tumor-bearing mice. To be noted: injected intraperitoneally four hours prior to the experiments; EGF or FBS gradient; MDA-MB-231, HT17 and HT39 tumors; vs vehicle or control IgG. More on the design: species or system SCID mice. As for the experimental part: (§1) SB431542 was used, a small molecule specific inhibitor of the TGFβ receptor (14,38), which was injected into the tumor-bearing mice prior to measurements of invasion and intravasation. Invasion was measured by count of the total cells that chemotax and invade in the primary tumor towards a gradient source (EGF or FBS) with the in vivo invasion assay. Intravasation and dissemination was measured by count of the circulating tumor cells in the total blood of tumorbearing mice.
(§2) The inhibitors SB431542 (a small molecule specific inhibitor of the TGFβ receptor), NSC87877 (a small molecule specific inhibitor of PTPN11) were used, and a neutralizing antibody specific to human IL8 for the experiments. Because the focus of the study is migration and invasion, a drug treatment of only 4 hours was given to the mice before experimental assays so that an acute effect on migration can be measured without long-term effects on tumor growth. Invasion was measured by count of the total cells that chemotax and invade in the primary tumor towards a gradient source (EGF or FBS) with the in viva invasion assay. Intravasation and hematogenous dissemination was measured by count of the circulating tumor cells (CTCs) in the blood of tumor-bearing mice. […] No significant difference in overall cell death was observed by histology in the treated tumors with the four-hour acute treatments. […] As a negative control, an inhibitor to a gene was used that was not identified by the HIS, namely, MYC, a known oncogene recently identified as a master regulator of expression in “poor-outcome” cancer signatures. […] Most of the published signatures to date are isolated from whole patient samples, and therefore represent “whole-picture” information about the metastatic process, a summary of invasion, dissemination, and growth/proliferation. […]
(§3) Animal Models. […] The mice were monitored for growth for up to 9 months, at which time if a tumor was not visible they were euthanized. For the tumors that grew, in vivo invasion was measured, and then the tumor was used to passage to new mice (surgical procedure same as before). […]

For assay [2] the test system is unchanged. Description: intravasation assay (circulating tumor cells in blood). The format is in vivo, SCID mice. Particulars: injected intraperitoneally four hours prior to the experiments; MDA-MB-231, HT17 and HT39 tumors; vs vehicle or control IgG. As to the method:
as §1, §2, §3

In the next assay the test system is MDA-MB-231 xenograft. Description: BrdU incorporation (proliferation marker) in tumors. Particulars: MDA-MB-231 xenograft mice, acute treatment. The format is in vivo. The text has this:
FIG. 13A-13C. […] (15A). Schematic of experimental design for the inhibitor treatments. (15B). Representative images of immunostained tumors sections with BrdU antibody (black) and counterstained for nuclei (gray). (15C). Quantification of the above experiments is shown for 3 mice per group, and 10 random 40× images per mouse/tumor (excluding necrotic areas). Bars represent the average percentage of BrdU positive nuclei (black) over total (gray). Error bars: SEM. p-values by Student's t-test.
The inhibitors SB431542 (a small molecule specific inhibitor of the TGFβ receptor), NSC87877 (a small molecule specific inhibitor of PTPN11) were used, and a neutralizing antibody specific to human IL8 for the experiments. Because the focus of the study is migration and invasion, a drug treatment of only 4 hours was given to the mice before experimental assays so that an acute effect on migration can be measured without long-term effects on tumor growth. Invasion was measured by count of the total cells that chemotax and invade in the primary tumor towards a gradient source (EGF or FBS) with the in viva invasion assay. Intravasation and hematogenous dissemination was measured by count of the circulating tumor cells (CTCs) in the blood of tumor-bearing mice. […] No significant difference in overall cell death was observed by histology in the treated tumors with the four-hour acute treatments. […]
Background: Uptake of a labelled nucleoside into DNA is a usual measure of proliferation.

For the molecule `O=S(=O)(O)c1ccc2cc(N=Nc3cc(S(=O)(=O)O)c4cccnc4c3O)ccc2c1` [NSC87877, 8-Hydroxy-7-[(6-sulfo-2-naphthyl)azo]-5-quinolinesulfonic acid], in assay [1], the “in vivo invasion (total cells that chemotax and invade in the primary tumor towards a gradient source, cells per microneedle)” value is on record as “significantly abrogated; also recorded: significantly inhibited”. Also, the “intravasation / tumor cell dissemination (circulating tumor cells in blood)” value (from here on “intravasation / tumor cell dissemination”) in assay [2] was “significantly abrogated; also recorded: significantly inhibited”.
On to `NC(=O)c1ccc(-c2nc(-c3ccc4c(c3)OCO4)c(-c3ccccn3)[nH]2)cc1` [SB431542, 4-[4-(1,3-benzodioxol-5-yl)-5-(2-pyridinyl)-1H-imidazol-2-yl]benzamide], for which the “in vivo invasion (total cells that chemotax and invade in the primary tumor towards a gradient source, cells per microneedle)” value in assay [1] is listed as “effectively abrogate; also recorded: significantly inhibited”. Besides, in assay [2], the “intravasation / tumor cell dissemination” value is given as “effectively abrogate; also recorded: significantly inhibited”.
For `CCc1ccc(/C=C2/SC(=S)NC2=O)cc1` [10058-F4], the “in vivo invasion (total cells that chemotax and invade in the primary tumor towards a gradient source, cells per microneedle)” value in assay [1] is “did not significantly alter”. Further, the “intravasation / tumor cell dissemination” value in assay [2] is on record as “did not significantly alter”. The “BrdU incorporation (percentage of BrdU positive nuclei; proliferation in vivo)” value with MDA-MB-231 xenograft is given as “significantly reduced; also recorded: significantly inhibits”.
